In patent US20260108483A1, “METHODS AND COMPOSITIONS FOR PREVENTING THE PROGRESSION OF DIABETIC RETINOPATHY AND RELATED CONDITIONS” (Opus Genetics, Inc., priority 2023, published 2026):

Columns and labels:
Type in all cases: in vivo, human
[1] = Clinical study safety: alanine aminotransferase in subjects' blood; conditions: combined placebo + Compound 1 patients; for Mean Concentration of Alanine Aminotransferase in Subjects' Blood: Baseline 22.4
Description: (§1) The study was configured as a placebo-controlled, double-masked, randomized, Phase 2 study in approximately 100 subjects with moderately severe to severe NPDR (diabetic retinopathy severity score [DRSS] Level 47 or 53, see FIG. 1) or mild PDR (DRSS Level 61), evaluating safety and efficacy following administration of Compound 1 twice daily for 24 weeks. The study was configured for a 1:1 randomization (placebo: Compound 1). Randomization was stratified by level of disease severity (NPDR or PDR). Subjects with mild PDR were capped at 20% for each arm. Efficacy evaluations at 12 and/or 24 weeks included DRSS, center-involved diabetic macular edema (DME), moderate PDR or PDR-related adverse events (AEs), best-corrected visual acuity (BCVA), and central subfield thickness (CST). Further experimental procedures and results are described below.
(§2) At the Qualification/Baseline (Visit 2, Day 1): • The subject was randomized into the study. • Study medication was dispensed in accordance with the subjects randomized treatment arm. • Blood samples were drawn pre-dose for baseline levels and on Visit 9 (Week 24) for exploratory biomarker processing (i.e., cytokine and Ref-1 levels) to evaluate pharmacodynamic properties. • Subjects were instructed to administer their study medication (Compound 1 or placebo) each day, with 3 tablets every morning and 2 tablets every evening. Study medication was to be taken at approximately the same time each day and may be taken with or without food.
(§3) At the Second Treatment Visit (Visit 6, Week 12±2 Days), subjects were to return to the site for the following series of safety and efficacy assessments: drug accountability, concomitant medications, urine pregnancy test (only for women of childbearing potential), HR/BP/vital signs, BCVA (ETDRS), DRSS, CST (SD-OCT), blood draw for PK, blood chemistry, blood hematology, biomicroscopy, ophthalmoscopy, IOP, eGFR, and AEs. Following the completion of the assessments, used medication kits were collected for accountability (by counting the number of unused tablets), and new study medication kits dispensed.
(§4) At the Third Treatment Visit (Visit 9, Week 24±2 Days), subjects were to return to the site for the following series of safety and efficacy assessments: drug accountability, concomitant medications, urine pregnancy test (only for women of childbearing potential), physical examination, HR/BP/vital signs, BCVA (ETDRS), DRSS, CST (SD-OCT), blood chemistry, blood hematology, biomicroscopy, ophthalmoscopy, IOP, eGFR, AEs, and blood draw for exploratory biomarkers (ELISA, cytokine panel, comprehensive metabolic panel). Visit 9 (Week 24) was the end of the treatment period. Study medication was returned for accountability (by counting the number of unused tablets), and no further study medication dispensed.
(§5) Safety endpoints include: • Incidence and severity of systemic and ocular AEs, • Change from baseline in body system assessments, • Change from baseline in vital sign measurements, • Change from baseline in clinical laboratory assay results (blood chemistry, hematology), • Change from baseline in intraocular pressure (IOP), • Change from baseline in slit-lamp examination parameters, • Change from baseline in dilated funduscopic examination parameters, • Percent of subjects with a decrease of ≥10 letters in BCVA compared to baseline at Week 12 and Week 24, • Percent of subjects progressing to center-involved DME (eligible for rescue treatment at Week 12 and Week 24), • Percent of subjects with a worsening in DRSS of ≥2 steps in the study eye at Week 12 and Week 24, • Percent of subjects developing anterior segment neovascularization at Week 12 and Week 24, • Percent of subjects rescued (intravitreal anti-VEGF injection, laser PRP, focal/grid laser treatment, or surgery [vitrectomy]) at the discretion of the Investigator at Week 12 and Week 24, and • Change from baseline in estimated glomerular filtration rate (eGFR) at Week 12 and Week 24. […]

[2] = Clinical study safety: aspartate aminotransferase in subjects' blood; conditions: combined placebo + Compound 1 patients; for Mean Concentration of Aspartate Aminotransferase in Subjects' Blood: Baseline 19.7
Description: as §1, §2, §3, §4, §5

[3] = Clinical study safety: glomerular filtration rate; conditions: combined placebo + Compound 1 patients; for Mean Glomerular Filtration Rate: Baseline 92.53
Description: as §1, §2, §3, §4, §5

[4] = Clinical study safety: diastolic blood pressure; conditions: combined placebo + Compound 1 patients; for Mean Diastolic Blood Pressure: Baseline 80.3
Description: as §1, §2, §3, §4, §5

CCCCCCCCC/C(=C\C1=C(C)C(=O)C(OC)=C(OC)C1=O)C(=O)O [Compound 1, (E)-2-((4,5-dimethoxy-2-methyl-3,6-dioxocyclohexa-1,4-dien-1-yl)methylene)undecanoic acid]
Mean Concentration of Alanine Aminotransferase in Subjects' Blood ([1]; Week 12, 53 subjects): 21.6 IU/L | Mean Concentration of Alanine Aminotransferase in Subjects' Blood ([1]; Week 24, 24 subjects): 20.4 IU/L | change in mean concentration of alanine aminotransferase relative to Baseline ([1]; week 12, 50 subjects): −0.8 IU/L | reduction in mean concentration of alanine aminotransferase relative to Baseline ([1]; week 12, 50 subjects): 3.6% | change in mean concentration of alanine aminotransferase relative to Baseline ([1]; week 24, 22 subjects): −2.1 IU/L | reduction in mean concentration of alanine aminotransferase relative to Baseline ([1]; week 24, 22 subjects): 9.4% | Mean Concentration of Aspartate Aminotransferase in Subjects' Blood ([2]; Week 12, 53 subjects): 19.2 IU/L | Mean Concentration of Aspartate Aminotransferase in Subjects' Blood ([2]; Week 24, 24 subjects): 17.5 IU/L | change in mean concentration of aspartate aminotransferase relative to Baseline ([2]; week 12, 50 subjects): −0.5 IU/L | reduction in mean concentration of aspartate aminotransferase relative to Baseline ([2]; week 12, 50 subjects): 3% | change in mean concentration of aspartate aminotransferase relative to Baseline ([2]; week 24, 22 subjects): −1.8 IU/L | reduction in mean concentration of aspartate aminotransferase relative to Baseline ([2]; week 24, 22 subjects): 9% | Mean Glomerular Filtration Rate ([3]; Week 12, 52 subjects): 83.85 mL/min/1.73 m^2 | Mean Glomerular Filtration Rate ([3]; Week 24, 24 subjects): 77.7 mL/min/1.73 m^2 | change in mean glomerular filtrate rate relative to Baseline ([3]; week 12, 47 subjects): −2.24 mL/min/1.73 m^2 | reduction in mean glomerular filtrate rate relative to Baseline ([3]; week 12, 47 subjects): 2% | change in mean glomerular filtrate rate relative to Baseline ([3]; week 24, 21 subjects): −9.84 mL/min/1.73 m^2 | reduction in mean glomerular filtrate rate relative to Baseline ([3]; week 24, 21 subjects): 11% | Mean Diastolic Blood Pressure ([4]; Week 12, 62 subjects): 77.1 mmHg | Mean Diastolic Blood Pressure ([4]; Week 24, 27 subjects): 80.4 mmHg | change in mean diastolic blood pressure relative to Baseline ([4]; week 12, 62 subjects): −2.8 mmHg | reduction in mean diastolic blood pressure relative to Baseline ([4]; week 12, 62 subjects): 3% | change in mean diastolic blood pressure relative to Baseline ([4]; week 24, 27 subjects): +1 mmHg | increase in mean diastolic blood pressure relative to Baseline ([4]; week 24, 27 subjects): 1%
